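How tested: cells in 96-well plates exposed to compound for 48 hours at five concentrations. The concentration for 50% growth inhibition is given as GI50.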 The source made the active and inactive calls. Cut-off read from the data, not from the text of the source: active = GI50 up to about 1.1 µM and inactive = higher.
How the values were obtained:
Experiment in all cases: NCI-60 cell line screen, 48 h
[1] = tested on: 786-0
[2] = tested on: A498
[3] = tested on: A549
[4] = tested on: ACHN
[5] = tested on: BT-549
[6] = tested on: CAKI-1
[7] = tested on: CCRF-CEM
[8] = tested on: COLO 205
[9] = tested on: DU-145
[10] = tested on: EKVX
[11] = tested on: HCC 2998
[12] = tested on: HCT-116
[13] = tested on: HCT-15
[14] = tested on: HL-60
[15] = tested on: HOP-62
[16] = tested on: HT-29
[17] = tested on: Hs-578T
[18] = tested on: IGROV-1
[19] = tested on: K562
[20] = tested on: KM12
[21] = tested on: LOX IMVI
[22] = tested on: M14
[23] = tested on: MCF7
[24] = tested on: MDA-MB-231
[25] = tested on: MDA-MB-435
[26] = tested on: MDA-N
[27] = tested on: MOLT-4
[28] = tested on: Malme-3M
[29] = tested on: NCI-H226
[30] = tested on: NCI-H23
[31] = tested on: NCI-H460
[32] = tested on: NCI-H522
[33] = tested on: NCI/ADR-RES
[34] = tested on: OVCAR-3
[35] = tested on: OVCAR-4
[36] = tested on: OVCAR-5
[37] = tested on: OVCAR-8
[38] = tested on: PC-3
[39] = tested on: RPMI-8226
[40] = tested on: SF-268
[41] = tested on: SF-295
[42] = tested on: SF-539
[43] = tested on: SK-MEL-28
[44] = tested on: SK-MEL-2
[45] = tested on: SK-MEL-5
[46] = tested on: SK-OV-3
[47] = tested on: SN12C
[48] = tested on: SNB-19
[49] = tested on: SNB-75
[50] = tested on: SR
[51] = tested on: SW-620
[52] = tested on: T47D
[53] = tested on: TK-10
[54] = tested on: U-251
[55] = tested on: UACC-257
[56] = tested on: UACC-62
[57] = tested on: UO-31
[58] = tested on: HOP-92
[59] = tested on: RXF 393

Compound: COC(=O)C1Cc2cc3c(cc2C1=O)CCC3 (configuration not stated)
- GI50 [1]: > 100 µM (inactive)
- GI50 [2]: > 100 µM (inactive)
- GI50 [3]: > 100 µM (inactive)
- GI50 [4]: > 100 µM (inactive)
- GI50 [5]: > 100 µM (inactive)
- GI50 [6]: > 100 µM (inactive)
- GI50 [7]: 92.7 µM (inactive)
- GI50 [8]: > 100 µM (inactive)
- GI50 [9]: > 100 µM (inactive)
- GI50 [10]: > 100 µM (inactive)
- GI50 [11]: > 100 µM (inactive)
- GI50 [12]: > 100 µM (inactive)
- GI50 [13]: > 100 µM
- GI50 [14]: > 100 µM (inactive)
- GI50 [15]: > 100 µM (inactive)
- GI50 [16]: > 100 µM (inactive)
- GI50 [17]: > 100 µM (inactive)
- GI50 [18]: > 100 µM (inactive)
- GI50 [19]: 43 µM (inactive)
- GI50 [20]: > 100 µM (inactive)
- GI50 [21]: > 100 µM (inactive)
- GI50 [22]: > 100 µM (inactive)
- GI50 [23]: > 100 µM (inactive)
- GI50 [24]: > 100 µM (inactive)
- GI50 [25]: > 100 µM (inactive)
- GI50 [26]: > 100 µM (inactive)
- GI50 [27]: 68.7 µM (inactive)
- GI50 [28]: > 100 µM (inactive)
- GI50 [29]: > 100 µM (inactive)
- GI50 [30]: > 100 µM (inactive)
- GI50 [31]: > 100 µM (inactive)
- GI50 [32]: > 100 µM (inactive)
- GI50 [33]: > 100 µM (inactive)
- GI50 [34]: > 100 µM (inactive)
- GI50 [35]: 42.1 µM (inactive)
- GI50 [36]: > 100 µM (inactive)
- GI50 [37]: > 100 µM (inactive)
- GI50 [38]: > 100 µM (inactive)
- GI50 [39]: > 100 µM (inactive)
- GI50 [40]: > 100 µM (inactive)
- GI50 [41]: > 100 µM (inactive)
- GI50 [42]: > 100 µM (inactive)
- GI50 [43]: > 100 µM (inactive)
- GI50 [44]: > 100 µM (inactive)
- GI50 [45]: > 100 µM (inactive)
- GI50 [46]: > 100 µM (inactive)
- GI50 [47]: 90.6 µM (inactive)
- GI50 [48]: > 100 µM (inactive)
- GI50 [49]: > 100 µM (inactive)
- GI50 [50]: > 100 µM (inactive)
- GI50 [51]: > 100 µM (inactive)
- GI50 [52]: > 100 µM (inactive)
- GI50 [53]: > 100 µM (inactive)
- GI50 [54]: > 100 µM (inactive)
- GI50 [55]: > 100 µM (inactive)
- GI50 [56]: > 100 µM (inactive)
- GI50 [57]: > 100 µM (inactive)

Compound: CCCCN1C(=O)CS/C1=N/Nc1nc2c([nH]1)c(=O)n(C)c(=O)n2C
- GI50 [1]: 17.3 µM (inactive)
- GI50 [2]: > 100 µM (inactive)
- GI50 [3]: > 100 µM (inactive)
- GI50 [4]: > 100 µM (inactive)
- GI50 [5]: > 100 µM (inactive)
- GI50 [6]: > 100 µM (inactive)
- GI50 [7]: 22.2 µM (inactive)
- GI50 [8]: > 100 µM (inactive)
- GI50 [9]: 19.2 µM (inactive)
- GI50 [10]: > 100 µM (inactive)
- GI50 [11]: > 100 µM (inactive)
- GI50 [12]: 15.2 µM (inactive)
- GI50 [13]: > 100 µM
- GI50 [14]: > 100 µM (inactive)
- GI50 [15]: 4.62 µM (inactive)
- GI50 [58]: 43.1 µM (inactive)
- GI50 [16]: 23.9 µM (inactive)
- GI50 [17]: 45.4 µM (inactive)
- GI50 [18]: > 100 µM (inactive)
- GI50 [19]: 30.5 µM (inactive)
- GI50 [20]: 6.35 µM (inactive)
- GI50 [22]: 28.5 µM (inactive)
- GI50 [23]: 13.7 µM (inactive)
- GI50 [24]: 29 µM (inactive)
- GI50 [25]: 14.7 µM (inactive)
- GI50 [26]: 14.6 µM (inactive)
- GI50 [27]: 21.8 µM (inactive)
- GI50 [28]: 38.8 µM (inactive)
- GI50 [29]: > 100 µM (inactive)
- GI50 [30]: > 100 µM (inactive)
- GI50 [31]: 13.7 µM (inactive)
- GI50 [32]: 61.7 µM (inactive)
- GI50 [33]: > 100 µM (inactive)
- GI50 [34]: 64.1 µM (inactive)
- GI50 [35]: 19.5 µM (inactive)
- GI50 [36]: 14.5 µM (inactive)
- GI50 [38]: > 100 µM (inactive)
- GI50 [39]: 42.4 µM (inactive)
- GI50 [59]: > 100 µM (inactive)
- GI50 [40]: 7.74 µM (inactive)
- GI50 [41]: 7.35 µM (inactive)
- GI50 [42]: 37.8 µM (inactive)
- GI50 [43]: 20 µM (inactive)
- GI50 [44]: 30 µM (inactive)
- GI50 [45]: 37.8 µM (inactive)
- GI50 [46]: 6.47 µM (inactive)
- GI50 [47]: 33.6 µM (inactive)
- GI50 [48]: 37.8 µM (inactive)
- GI50 [50]: 11.9 µM (inactive)
- GI50 [52]: 34.2 µM (inactive)
- GI50 [53]: > 100 µM (inactive)
- GI50 [54]: 15 µM (inactive)
- GI50 [55]: > 100 µM (inactive)
- GI50 [56]: 86.5 µM (inactive)
- GI50 [57]: > 100 µM (inactive)
